Broadly, the inhibition is the drop in the measured response relative to a control, in per cent. By IC50 is commonly meant the point on the concentration scale where inhibition reaches its midpoint. A high value points to weaker potency in that assay.

The record followed here is ChEMBL document CHEMBL4400519, “Indazolylketones as new multitarget cannabinoid drugs” (Eur J Med Chem, 2019).

Calls of active or inactive are those of the source. The rule behind the calls is not given here.

The target of data set [1] is T1, Cannabinoid receptor (Mus musculus) (UniProt P47746+P47936). Nature of the data set: Agonist activity at cannabinoid receptor in ICR mouse vas deferens assessed as inhibition of electrically induced contractions at 1.82 x 10^-5 M after 10 mins relative to control. The format is protein assay.
The target in data set [2] is T1, Cannabinoid receptor (Mus musculus). Nature of the data set: Agonist activity at cannabinoid receptor in ICR mouse vas deferens assessed as inhibition of electrically induced contractions at 2.7 x 10^-6 M after 10 mins in presence of CB2 antagonist AM630 relative to control. The format is protein assay.
In data set [3] the target is T2, Acetylcholinesterase (Homo sapiens, UniProt P22303). Nature of the data set: Inhibition of human erythrocyte AChE at 10 uM using acetylthiocholine as substrate by Ellman's assay.
Data set [4] addresses T2, Acetylcholinesterase. In words: Inhibition of human erythrocyte AChE using acetylthiocholine as substrate by Ellman's assay. Background: DTNB colorimetry detects thiols as they appear.
Data set [5] concerns the target T1, Cannabinoid receptor (Mus musculus). Nature of the data set: Agonist activity at cannabinoid receptor in ICR mouse vas deferens assessed as inhibition of electrically induced contractions at 1.82 x 10^-5 M after 10 mins in presence of CB2 antagonist AM630 relative to control. The data set is classed as protein assay.
Data set [6] shares this target. In words: Agonist activity at cannabinoid receptor in ICR mouse vas deferens assessed as inhibition of electrically induced contractions at 3 x 10^-7 M after 10 mins relative to control. The format is protein assay.
Another data set addresses Cholinesterase (Homo sapiens, UniProt P06276). Nature of the data set: Inhibition of human serum BChE using butyrylthiocholine as substrate by Ellman's assay.
Data set [7] deals with T1, Cannabinoid receptor (Mus musculus). Nature of the data set: Agonist activity at cannabinoid receptor in ICR mouse vas deferens assessed as inhibition of electrically induced contractions at 8.1 x 10^-6 M after 10 mins relative to control. The data set is classed as protein assay.
Data set [8] has the same target. In words: Agonist activity at cannabinoid receptor in ICR mouse vas deferens assessed as inhibition of electrically induced contractions at 3 x 10^-7 M after 10 mins in presence of CB1 antagonist AM251 relative to control. The data set is classed as protein assay.
For data set [9] the target is unchanged. In words: Agonist activity at cannabinoid receptor in ICR mouse vas deferens assessed as inhibition of electrically induced contractions at 10^-7 M after 10 mins relative to control. The data set is classed as protein assay.
The target is the same in data set [10]. In words: Agonist activity at cannabinoid receptor in ICR mouse vas deferens assessed as inhibition of electrically induced contractions at 2.7 x 10^-6 M after 10 mins in presence of CB1 antagonist AM251 relative to control. The format is protein assay.
The target is the same in data set [11]. In words: Agonist activity at cannabinoid receptor in ICR mouse vas deferens assessed as inhibition of electrically induced contractions at 1.82 x 10^-5 M after 10 mins in presence of CB1 antagonist AM251 relative to control. The format is protein assay.
Data set [12] has the same target. Nature of the data set: Agonist activity at cannabinoid receptor in ICR mouse vas deferens assessed as inhibition of electrically induced contractions at 9 x 10^-7 M after 10 mins relative to control. The data set is classed as protein assay.
Data set [13] is described as follows: Antioxidant activity assessed as trolox equivalent of APPH-induced radical scavenging activity by ORAC-FL assay. The format is functional.
The target of data set [14] is T1, Cannabinoid receptor (Mus musculus). Nature of the data set: Agonist activity at cannabinoid receptor in ICR mouse vas deferens assessed as inhibition of electrically induced contractions at 10^-7 M after 10 mins in presence of CB1 antagonist AM251 relative to control. The format is protein assay.
Data set [15] shares this target. In words: Agonist activity at cannabinoid receptor in ICR mouse vas deferens assessed as inhibition of electrically induced contractions at 8.1 x 10^-6 M after 10 mins in presence of CB1 antagonist AM251 relative to control. The format is protein assay.
Data set [16] shares this target. In words: Agonist activity at cannabinoid receptor in ICR mouse vas deferens assessed as inhibition of electrically induced contractions at 8.1 x 10^-6 M after 10 mins in presence of CB2 antagonist AM630 relative to control. The data set is classed as protein assay.
The target is the same in data set [17]. Nature of the data set: Agonist activity at cannabinoid receptor in ICR mouse vas deferens assessed as inhibition of electrically induced contractions at 10^-7 M after 10 mins in presence of CB2 antagonist AM630 relative to control. The data set is classed as protein assay.
The target is the same in data set [18]. In words: Agonist activity at cannabinoid receptor in ICR mouse vas deferens assessed as inhibition of electrically induced contractions at 9 x 10^-7 M after 10 mins in presence of CB2 antagonist AM630 relative to control. The data set is classed as protein assay.
The target in data set [19] is Beta-secretase 1 (Homo sapiens) (UniProt P56817). In words: Inhibition of human BACE1 at 10 uM incubated for 60 mins using rhodamine-EVNLDAEFK-quencher substrate by FRET assay.
Data set [20] deals with T1, Cannabinoid receptor (Mus musculus). Nature of the data set: Agonist activity at cannabinoid receptor in ICR mouse vas deferens assessed as inhibition of electrically induced contractions at 9 x 10^-7 M after 10 mins in presence of CB1 antagonist AM251 relative to control. The data set is classed as protein assay.
Data set [21] has the same target. In words: Agonist activity at cannabinoid receptor in ICR mouse vas deferens assessed as inhibition of electrically induced contractions at 3 x 10^-7 M after 10 mins in presence of CB2 antagonist AM630 relative to control. The data set is classed as protein assay.
For data set [22] the target is unchanged. Nature of the data set: Agonist activity at cannabinoid receptor in ICR mouse vas deferens assessed as inhibition of electrically induced contractions at 2.7 x 10^-6 M after 10 mins relative to control. The format is protein assay.
The species entered for data set [23] is Homo sapiens. In words: Antiproliferative activity against Alzheimer's patient derived lymphoblast cells at 5 uM in presence of CB2 antagonist AM630 after 72 hrs by MTT assay. The data set is classed as functional. Background: Formazan colour is commonly taken as a measure of viable cells.
The nature of data set [24]: Antiproliferative activity against normal human derived lymphoblast cells at 5 uM after 72 hrs by MTT assay.
Data set [25] relates to SH-SY5Y. In words: Neuroprotective activity against amyloid beta-induced neurodegeneration in human SH-SY5Y cells at 20 uM preincubated for 1 hr followed by amyloid beta addition and measured after 24 hrs by MTT assay. The data set is classed as functional, cell-based.
Data set [26] is filed under the species Homo sapiens. Nature of the data set: Antiproliferative activity against Alzheimer's patient derived lymphoblast cells at 5 uM after 72 hrs by MTT assay. The format is functional.
Data set [27] deals with SH-SY5Y. Nature of the data set: Neuroprotective activity against amyloid beta-induced neurodegeneration in human SH-SY5Y cells at 20 uM preincubated for 1 hr followed by amyloid beta addition and measured after 24 hrs in presence of CB2 antagonist AM630 by MTT assay. The format is functional, cell-based.

T1 sequence (P47746 whole entry, looked up): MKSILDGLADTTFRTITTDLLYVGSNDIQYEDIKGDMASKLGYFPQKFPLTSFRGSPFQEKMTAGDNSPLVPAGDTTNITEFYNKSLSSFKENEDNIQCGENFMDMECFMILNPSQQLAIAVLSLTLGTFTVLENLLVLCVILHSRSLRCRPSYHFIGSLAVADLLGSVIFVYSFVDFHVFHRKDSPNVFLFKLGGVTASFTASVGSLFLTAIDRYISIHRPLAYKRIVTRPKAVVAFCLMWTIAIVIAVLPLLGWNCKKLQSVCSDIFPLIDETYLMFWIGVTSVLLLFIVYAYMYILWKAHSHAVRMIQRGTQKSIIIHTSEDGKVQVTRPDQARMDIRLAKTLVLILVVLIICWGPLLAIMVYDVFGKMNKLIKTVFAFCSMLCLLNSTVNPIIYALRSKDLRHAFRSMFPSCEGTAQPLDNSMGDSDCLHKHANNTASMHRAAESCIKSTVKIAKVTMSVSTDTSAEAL
T1 sequence (P47936 whole entry, looked up): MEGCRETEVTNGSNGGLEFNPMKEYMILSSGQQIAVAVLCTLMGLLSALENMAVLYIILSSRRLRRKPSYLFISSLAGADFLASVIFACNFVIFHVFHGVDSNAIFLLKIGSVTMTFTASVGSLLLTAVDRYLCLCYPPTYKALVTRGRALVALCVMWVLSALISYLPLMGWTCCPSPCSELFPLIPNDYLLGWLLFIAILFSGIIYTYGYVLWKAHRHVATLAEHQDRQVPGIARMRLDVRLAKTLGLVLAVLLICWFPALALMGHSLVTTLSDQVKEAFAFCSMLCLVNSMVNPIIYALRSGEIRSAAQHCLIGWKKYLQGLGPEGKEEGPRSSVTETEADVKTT
Cholinesterase, sequence (P06276 whole entry): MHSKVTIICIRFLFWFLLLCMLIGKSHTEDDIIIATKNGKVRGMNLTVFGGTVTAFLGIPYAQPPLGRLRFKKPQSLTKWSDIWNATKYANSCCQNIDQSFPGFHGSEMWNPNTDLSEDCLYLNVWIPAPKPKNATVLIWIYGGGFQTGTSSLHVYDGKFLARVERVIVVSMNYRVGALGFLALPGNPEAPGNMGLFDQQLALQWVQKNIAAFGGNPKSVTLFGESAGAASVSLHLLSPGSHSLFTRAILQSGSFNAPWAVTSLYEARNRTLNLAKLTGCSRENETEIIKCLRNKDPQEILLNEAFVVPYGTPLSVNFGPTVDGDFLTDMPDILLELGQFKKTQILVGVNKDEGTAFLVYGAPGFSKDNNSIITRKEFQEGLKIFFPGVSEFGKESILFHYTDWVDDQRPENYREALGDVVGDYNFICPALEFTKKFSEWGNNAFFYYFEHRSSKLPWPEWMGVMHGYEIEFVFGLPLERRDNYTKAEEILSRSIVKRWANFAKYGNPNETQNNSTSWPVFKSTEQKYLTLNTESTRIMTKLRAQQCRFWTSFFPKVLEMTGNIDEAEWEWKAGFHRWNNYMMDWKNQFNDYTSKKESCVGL
Beta-secretase 1 (Homo sapiens), sequence (P56817 whole entry): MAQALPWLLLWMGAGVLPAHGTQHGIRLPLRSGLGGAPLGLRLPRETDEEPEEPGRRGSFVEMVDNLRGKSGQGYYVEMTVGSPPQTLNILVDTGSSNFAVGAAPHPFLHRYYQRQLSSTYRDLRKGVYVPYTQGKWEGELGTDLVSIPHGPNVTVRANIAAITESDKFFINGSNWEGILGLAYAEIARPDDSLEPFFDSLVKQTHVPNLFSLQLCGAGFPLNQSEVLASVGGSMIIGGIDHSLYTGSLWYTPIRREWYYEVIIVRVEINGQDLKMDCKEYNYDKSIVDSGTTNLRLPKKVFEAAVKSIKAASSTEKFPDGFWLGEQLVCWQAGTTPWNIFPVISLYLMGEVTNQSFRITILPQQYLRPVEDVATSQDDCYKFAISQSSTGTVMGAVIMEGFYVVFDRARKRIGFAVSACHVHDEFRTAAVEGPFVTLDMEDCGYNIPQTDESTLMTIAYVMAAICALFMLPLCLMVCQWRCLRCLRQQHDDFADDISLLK
T2 sequence (P22303 whole entry): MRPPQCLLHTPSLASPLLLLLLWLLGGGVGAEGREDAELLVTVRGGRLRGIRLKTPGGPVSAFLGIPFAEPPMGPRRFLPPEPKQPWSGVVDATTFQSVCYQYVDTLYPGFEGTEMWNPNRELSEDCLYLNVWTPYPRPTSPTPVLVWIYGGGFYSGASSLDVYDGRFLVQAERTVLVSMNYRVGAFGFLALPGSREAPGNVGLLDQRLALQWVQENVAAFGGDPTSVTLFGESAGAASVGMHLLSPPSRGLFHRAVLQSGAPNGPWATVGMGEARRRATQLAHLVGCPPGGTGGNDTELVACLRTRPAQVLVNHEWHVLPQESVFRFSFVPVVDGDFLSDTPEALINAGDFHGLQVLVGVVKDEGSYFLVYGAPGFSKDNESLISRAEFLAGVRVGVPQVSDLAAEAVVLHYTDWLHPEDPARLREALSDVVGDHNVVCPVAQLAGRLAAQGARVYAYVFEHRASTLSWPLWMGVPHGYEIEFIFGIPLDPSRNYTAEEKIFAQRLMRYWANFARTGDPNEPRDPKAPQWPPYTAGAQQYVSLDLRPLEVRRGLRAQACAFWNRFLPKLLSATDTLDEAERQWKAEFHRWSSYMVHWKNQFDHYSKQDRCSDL

For the compound `O=C(c1cccc2ccccc12)n1nc(OCCCN2CCCC2)c2ccccc21`, the inhibition came out at 87.4% in data set [1]; 15.2% in [2]; 35% against Acetylcholinesterase [3]; 89.5% in [5]; 0.5% in [6]; 56.1% in data set [7]. Further, the inhibition is -8.6% in [8]; -2% in data set [9]; 5.7% in data set [10]; 88.4% in data set [11]; 3.2% in [12]; -6.7% in data set [14]. The inhibition in data set [15] is 57.9%; in data set [16], 68.7%; in data set [17], -2.7%; in data set [18], 4%; in data set [19], 20%; in data set [20], -7.2%. In addition, the inhibition in data set [21] is -0.9%; in data set [22] it was 11.3%. For the same compound, the IC50 against Acetylcholinesterase [4] was greater than 10000 nM; against Cholinesterase, 0.15 nM. Also, in data set [13], the outcome was inactive.

With `O=C(c1ccccc1Cl)n1nc(OCCN2CCCC2)c2ccccc21`, the inhibition in data set [1] was 75.4%; in data set [2] it was 8.8%; in data set [5], 29.3%; in data set [6], 4.9%; in data set [7], 45.9%; in [8], -2.8%. The inhibition in data set [9] is 1.5%; in data set [10], -2.2%; in data set [11] it was 21.1%; in data set [12], 10.8%; in data set [14], -2.8%; in [15], -2.6%. Besides, the inhibition in [16] is 15.8%; in [17], -2.5%; in [18], 3.5%; in data set [19], 9%; in data set [20], -1.2%; in data set [21] it was 0.3%. In data set [22], the inhibition was 15.1%. Further, the IC50 at Acetylcholinesterase [4] was determined as 9700 nM; at Cholinesterase, 1300 nM. For the same compound, the outcome (in the data set filed under Homo sapiens [23]; in [13]; in the data set on SH-SY5Y [27]) was inactive. For the same compound, in [24], the Activity result is recorded as “Non-Toxic”. Moreover, the outcome in the data set with SH-SY5Y [25] and in the data set filed under Homo sapiens [26] was Active.

In the case of `O=C(c1cccc2ccccc12)n1nc(OCCN2CCCCC2)c2ccccc21`, the inhibition came out at 93.7% in [1]; 15.7% in data set [2]; 37% at Acetylcholinesterase [3]; 92% in data set [5]; 1.4% in data set [6]; 69.2% in data set [7]. For the same compound, the inhibition was -0.7% in [9]; 73.3% in [11]; 8.6% in data set [12]; -7.7% in [14]; 27.8% in data set [15]; 73.6% in [16]. In addition, the inhibition in data set [17] is -8.6%; in data set [18] it was -2.6%; in data set [19], 11%; in data set [21] it was -7.9%; in data set [22] it was 28.6%. The IC50 was greater than 10000 nM on Acetylcholinesterase [4] and 0.26 nM at Cholinesterase. For the same compound, in data set [13], the result was inactive.

On to `O=C(c1cccc(Cl)c1Cl)n1nc(OCCN2CCCC2)c2ccccc21`, for which the inhibition in data set [1] is 80.8%; in data set [2] it was 14.2%; in data set [5] it was 52.9%; in data set [6], 5.6%; in data set [7] it was 56.3%; in data set [8], 3.4%. Further, the inhibition was 1.6% in data set [9]; 13% in data set [10]; 80.4% in [11]; 17.3% in data set [12]; -0.3% in [14]; 44.8% in data set [15]. Further, the inhibition turned out to be 30.4% in [16]; 0% in data set [17]; 7.9% in [18]; 32.6% in [19]; 7.1% in data set [20]; 3.4% in data set [21]. In addition, the inhibition in data set [22] stood at 27.8%. In addition, the results for the IC50 against Acetylcholinesterase [4] and on Cholinesterase were greater than 10000 nM and 230 nM, respectively. The result in the data set filed under Homo sapiens [23] and in the data set with SH-SY5Y [27] was inactive. Moreover, the Activity result was “Non-Toxic” in data set [24] and 0.41 equiv in [13]. In addition, the result in the data set on SH-SY5Y [25] and in the data set filed under Homo sapiens [26] was Active.

Take `CCCC(C)(C)c1ccc2c(c1)OC(C)(C)[C@@H]1CC=C(C)C[C@@H]21`: the Activity result in data set [24] is given as “Non-Toxic”. Moreover, the outcome in the data set listed under Homo sapiens [26] was Active.

As for `O=C(c1ccccc1OCc1ccccc1)n1nc(OCCN2CCCC2)c2ccccc21`, the inhibition is 68.1% in data set [1]; 10.3% in data set [2]; 76.7% in data set [5]; 3.7% in data set [6]; 32.5% in data set [7]; -0.5% in [8]. Moreover, the inhibition in data set [9] was 1.2%; in data set [10], 5.9%; in data set [11], 71.2%; in data set [12], 7.7%; in data set [14], -1.9%; in data set [15], 38.8%. In addition, the inhibition is 47.2% in [16]; -4% in data set [17]; 2.7% in [18]; 32% in [19]; 1.3% in [20]; -1.6% in [21]. Further, the inhibition in data set [22] was determined as 10.4%. The IC50 at Acetylcholinesterase [4] was greater than 10000 nM; against Cholinesterase, 390 nM. Moreover, in [13], the outcome was inactive.

With `O=C(c1cccc2ccccc12)n1nc(OCCCN2CCCCC2)c2ccccc21`, the inhibition in data set [1] was found to be 55.9%; in [2] it was 14.2%; against Acetylcholinesterase [3] it was 43%; in data set [5] it was 56.7%; in data set [6], 3%; in data set [7], 31.5%. Further, the inhibition is -5% in data set [8]; 1% in [9]; -2.4% in [10]; 18.4% in data set [11]; 7.9% in data set [12]; -6.4% in data set [14]. Further, the inhibition in [15] is 2.7%; in [16] it was 41%; in data set [17], -8.2%; in data set [18], 0.1%; in [19], 42%; in data set [20] it was -3.7%. Moreover, the inhibition in [21] is -5.4%; in data set [22], 16%. Also, the IC50 against Acetylcholinesterase [4] is greater than 10000 nM; against Cholinesterase, 0.07 nM. The result in data set [13] was inactive.
